Like-named read-outs stand apart in the source and are kept apart here.

In experiment [1] the test system is microfilaria of Dirofilaria immitis. In words: Method F: microfilaria of Dirofilaria immitis, survival at 24 hours.
Experiment [2] relates to Haemonchus contortus. Put plainly: Method A: Haemonchus contortus L1 larvae, microtitre plate screen. Particulars: 96 h, read-out: motility inhibition.
For experiment [3], the system named is Cooperia oncophora. In words: Method C: Cooperia oncophora L1 larvae in vitro. Particulars: 96 h, read-out: inhibition of motility.
Setting [4] is: survival of microfilaria at 24 hours.

In turn, `O=C(CO[C@H]1CC[C@H](Nc2ccc([N+](=O)[O-])c(C(F)(F)F)c2)CC1)N1CCN(C(=O)c2cc3cc(C(F)(F)F)ccc3o2)CC1` [Compound 183, 2-[(4-[[4-nitro-3-(trifluoromethyl)phenyl]amino]cyclohexan-1-e)oxy]-1-(4-[[5-(trifluoromethyl)-1-benzofuran-2-yl]carbonyl]piperazin-1-yl)ethan-1-one] gave an EC50 in experiment [1] (setting [4]) of less than 1 µg/mL. Also, the inhibition at 5 µg/mL in experiment [2] and in experiment [3] was not below 90% in each case.
As to `Cc1cc(N2CCN(C(=O)CO[C@H]3CC[C@H](Nc4ccc([N+](=O)[O-])c(C(F)(F)F)c4)CC3)CC2)nc2ccc(Cl)cc12` [Compound 270, 1-[4-(6-chloro-4-methyl-2-quinolyl)piperazin-1-yl]-2-[4-[4-nitro-3-(trifluoromethyl)anilino]cyclohexoxy]ethanone], in experiment [1] (setting [4]), the EC50 is less than 1 µg/mL. Also, the inhibition at 5 µg/mL in experiment [2] and in experiment [3] was not below 90% each time.
For the molecule `CN(c1ccc(C#N)c(C(F)(F)F)c1)[C@H]1CC[C@H](OCC(=O)N2CCN(c3ccc4cc(Cl)ccc4n3)CC2)CC1` [Compound 282, 2-[(4-[methyl[4-cyano-3-(trifluoromethyl)phenyl]amino]cyclohexyl)-oxy]1-[4-(6-chloroquinolin-2-yl)-piperazin-1-yl]ethan-1-one], the inhibition at 5 µg/mL in experiment [2] and in experiment [3] was not below 90% throughout.
For `N#Cc1ccc(N[C@H]2CC[C@H](OCC(=O)N3CCN(c4ccc5cc(F)ccc5c4F)CC3)CC2)cc1C(F)(F)F` [Compound 290, 4-(4-{2-[4-(1,6-difluoro-naphthalen-2-yl)-piperazin-1-yl]-2-oxo-ethoxy}-cyclohexylamino)-2-trifluoromethyl-benzonitrile], the EC50 in experiment [1] (setting [4]) is less than 1 µg/mL. Besides, the inhibition at 5 µg/mL in experiment [2] and in experiment [3] was not below 90% in each case.
In experiment [1] (setting [4]), `O=C(CO[C@H]1CC[C@H](Nc2ccc([N+](=O)[O-])c(C(F)(F)F)c2)CC1)N1CCN(c2ccc3cc(Cl)ccc3n2)CC1` [Compound 90, 1-[4-(6-chloroquinolin-2-yl)piperazin-1-yl]-2-[(4-[[4-nitro-3-(trifluoromethyl)phenyl]amino]cyclohexyl)oxy]ethan-1-one] returned an EC50 of less than 0.1 µg/mL. Further, the inhibition at 5 µg/mL in experiment [2] and in experiment [3] was not below 90% each time.
`N#Cc1ccc(N[C@H]2CC[C@H](OCC(=O)N3CCN(c4ccc5cc(Br)ccc5n4)CC3)CC2)cc1C(F)(F)F` [Compound 271, 2-[(4-[[4-cyano-3-(trifluoromethyl)phenyl]amino]cyclohexyl)oxy]-1-[4-(6-bromoquinolin-2-yl)piperazin-1-yl]ethan-1-one] registered an EC50 in experiment [1] (setting [4]) of less than 1 µg/mL. For the same molecule, the inhibition at 5 µg/mL in experiment [2] and in experiment [3] was not below 90% each time.
In experiment [1] (setting [4]), `CC(c1cc2cc(Cl)ccc2o1)N1CCN(C(=O)CO[C@H]2CC[C@H](Nc3ccc([N+](=O)[O-])c(C(F)(F)F)c3)CC2)CC1` (some centres unmarked) [Compound 300] gave an EC50 of less than 0.1 µg/mL. In addition, the inhibition at 5 µg/mL in experiment [2] and in experiment [3] was not below 90% throughout.
`C[C@@H]1CN(CC2Cc3cc(F)ccc3O2)[C@@H](C)CN1C(=O)CO[C@H]1CC[C@H](Nc2ccc([N+](=O)[O-])c(C(F)(F)F)c2)CC1` (stereo partly drawn) [Compound 307, 1-[(2R,5S)-4-(5-fluoro-2,3-dihydro-benzofuran-2-ylmethyl)-2,5-dimethyl-piperazin-1-yl]-2-[4-(4-nitro-3-trifluoromethyl-phenylamino)-cyclohexyloxy]-ethanone] yielded an EC50 in experiment [1] (setting [4]) of less than 0.1 µg/mL. The inhibition at 5 µg/mL in experiment [2] and in experiment [3] was not below 90% throughout.
Consider `CC(c1ccc2cc(F)ccc2c1)N1CCN(C(=O)CO[C@H]2CC[C@H](Nc3ccc([N+](=O)[O-])c(C(F)(F)F)c3)CC2)CC1` (some centres unmarked) [Compound 298, 2-[(4-[[4-nitro-3-(trifluoromethyl)phenyl]amino]cyclohexyl)-oxy]1-[4-[1-(6-fluoronaphthalen-2-yl)ethyl]piperazin-1-yl]ethan-1-one], for which the concentration for a half-maximal effect (EC50) in experiment [1] (setting [4]) was less than 1 µg/mL. Moreover, the inhibition at 5 µg/mL in experiment [2] and in experiment [3] was not below 90% in each case.
On to `O=C(CO[C@H]1CC[C@H](Nc2ccc([N+](=O)[O-])c(C(F)(F)F)c2)CC1)N1CCN(CC2Cc3cc(-c4ccc(F)cc4)ccc3O2)CC1` (some centres unmarked) [Compound 310, 1-{4-[5-(4-fluoro-phenyl)-2,3-dihydro-benzofuran-2-ylmethyl]-piperazin-1-yl}-2-[4-(4-nitro-3-trifluoromethyl-phenylamino)-cyclohexyloxy]-ethanone], for which the EC50 in experiment [1] (setting [4]) is less than 0.1 µg/mL. Moreover, the inhibition at 5 µg/mL in experiment [2] and in experiment [3] was not below 90% each time.
Turning to `CC(c1nc2cc(C(F)(F)F)ccc2s1)N1CCN(C(=O)CO[C@H]2CC[C@H](Nc3ccc([N+](=O)[O-])c(C(F)(F)F)c3)CC2)CC1` (some centres unmarked) [Compound 343, 2-[4-(4-nitro-3-trifluoromethyl-phenylamino)-cyclohexyloxy]-1-{4-[1-(5-trifluoromethyl-benzothiazol-2-yl)-ethyl]-piperazin-1-yl}-ethanone], the inhibition at 5 µg/mL in experiment [2] and in experiment [3] was not below 90% in each case.
Consider `O=C(COC1CCC(Nc2ccc([N+](=O)[O-])c(C(F)(F)F)c2)CC1)N1CCN(c2ccc3cc(Br)ccc3n2)CC1` (centres unmarked) [Compound 266, 2-[[4-[(4-nitro-3-trifluoromethyl-phenyl)amino]cyclohexyl]oxy]-1-[4-(6-bromoquinolin-2-yl)piperazin-1-yl]ethan-1-one], for which the EC50 in experiment [1] (setting [4]) was less than 0.1 µg/mL. Besides, the inhibition at 5 µg/mL in experiment [2] and in experiment [3] was not below 90% throughout.
In the case of `O=C(CO[C@H]1CC[C@H](Nc2ccc(S(=O)(=O)C(F)(F)F)cc2)CC1)N1CCN(Cc2nc3cc(C(F)(F)F)ccc3s2)CC1` [Compound 344, 1-[4-[[5-(trifluoromethyl)-1,3-benzothiazol-2-yl]methyl]piperazin-1-yl]-2-[4-[4-(trifluoromethylsulfonyl)anilino]cyclohexoxy]ethanone], the inhibition at 5 µg/mL in experiment [2] and in experiment [3] was not below 90% throughout.
`CN(c1ccc(C#N)c(C(F)(F)F)c1)[C@H]1CC[C@H](OCC(=O)N2CCN(c3ccc4cc(Br)ccc4n3)CC2)CC1` [Compound 281, 2-[(4-[methyl[4-cyano-3-(trifluoromethyl)phenyl]amino]cyclohexyl)-oxy]-1-[4-(6-bromoquinolin-2-yl)piperazin-1-yl]ethan-1-one]: the inhibition at 5 µg/mL in experiment [2] and in experiment [3] was not below 90% throughout.
For the molecule `O=C(CO[C@H]1CC[C@H](Nc2ccc(S(=O)(=O)C(F)(F)F)cc2)CC1)N1CCN(c2ccc3cc(C(F)(F)F)ccc3n2)CC1` [Compound 331, 1-[4-[6-(trifluoromethyl)-2-quinolyl]piperazin-1-yl]-2-[4-[4-(trifluoromethylsulfonyl)anilino]cyclohexoxy]ethanone], the inhibition at 5 µg/mL in experiment [2] and in experiment [3] was not below 90% in each case.
`O=C(CO[C@H]1CC[C@H](Nc2ccc([N+](=O)[O-])c(C(F)(F)F)c2)CC1)N1CCN(CC2Cc3cc(Cl)ccc3O2)CC1` (some centres unmarked) [Compound 76, 1-[4-[(5-chloro-2,3-dihydro-1-benzofuran-2-yl)methyl]piperazin-1-yl]-2-[(4-[[4-nitro-3-(trifluoromethyl)phenyl]amino]cyclohexyl)oxy]ethan-1-one] displayed a concentration for a half-maximal effect (EC50) in experiment [1] of less than 5 µg/mL. Moreover, the inhibition at 5 µg/mL in experiment [2] and in experiment [3] was not below 90% each time.
For `O=C(CO[C@H]1CC[C@H](Nc2ccc([N+](=O)[O-])c(C(F)(F)F)c2)CC1)N1CCN(c2ccc3cc(F)ccc3c2F)CC1` [Compound 289, 1-[4-(1,6-difluoro-naphthalen-2-yl)-piperazin-1-yl]-2-[4-(4-nitro-3-trifluoromethyl-phenylamino)-cyclohexyloxy]-ethanone], the inhibition at 5 µg/mL in experiment [2] and in experiment [3] was not below 90% throughout.
In experiment [1] (setting [4]), `Cc1cc(N2CCN(C(=O)CO[C@H]3CC[C@H](Nc4ccc([N+](=O)[O-])c(C(F)(F)F)c4)CC3)CC2)nc2ccc(F)cc12` [Compound 99, 1-[4-(6-fluoro-4-methyl-2-quinolyl)piperazin-1-yl]-2-[4-[4-nitro-3-(trifluoromethyl)anilino]cyclohexoxy]ethanone] returned an EC50 of less than 1 µg/mL. Also, the inhibition at 5 µg/mL in experiment [2] and in experiment [3] was not below 90% each time.
Turning to `O=C(CO[C@H]1CC[C@H](Nc2ccc([N+](=O)[O-])c(C(F)(F)F)c2)CC1)N1CCN(Cc2cc3cc(OC(F)(F)F)ccc3o2)CC1` [Compound 326, 2-[(4-[[4-nitro-3-(trifluoromethyl)phenyl]amino]cyclohexyl)-oxy]1-[4-[5-(trifluoromethoxy)benzofuran-2-ylmethyl]piperazin-1-yl]ethan-1-one], the inhibition at 5 µg/mL in experiment [2] and in experiment [3] was not below 90% each time.
The molecule `O=C(CO[C@H]1CC[C@H](Nc2ccc([N+](=O)[O-])c(C(F)(F)F)c2)CC1)N1CCN(C(=O)c2cc3cc(Cl)ccc3o2)CC1` [Compound 181, 1-[4-[(5-chloro-1-benzofuran-2-yl)carbonyl]piperazin-1-yl]-2-[(4-[[4-nitro-3-(trifluoromethyl)phenyl]amino]cyclohexyl)oxy]ethan-1-one] registered an EC50 in experiment [1] (setting [4]) of less than 1 µg/mL. Besides, the inhibition at 5 µg/mL in experiment [2] was not below 90%.
For `O=C(CO[C@H]1CC[C@H](Nc2ccc([N+](=O)[O-])c(C(F)(F)F)c2)CC1)N1CCN(c2cc3cc(F)ccc3s2)CC1` [Compound 236, 1-(4-(5-fluorobenzo[b]thiophen-2-yl)piperazin-1-yl)-2-((4-((4-nitro-3-(trifluoromethyl)phenyl)amino)cyclohexyl)oxy)ethanone], in that order: less than 1 µg/mL and not below 90%.
Turning to `N#Cc1ccc(NC2CCN(C(=O)CCCN3CCN(c4ccc5cc(F)ccc5n4)CC3)CC2)cc1C(F)(F)F` [Compound 103, 4-[(1-[4-[4-(6-fluoroquinolin-2-yl)piperazin-1-yl]butanoyl]piperidin-4-yl)amino]-2-(trifluoromethyl)benzonitrile], the EC50 in experiment [1] (setting [4]) was less than 5 µg/mL. Moreover, the inhibition at 5 µg/mL in experiment [2] was not below 90%.
